These are literature values, as cited in patent publication US12691078B2, “Stable compositions of functional ingredients and methods of making the same” (Nulixir Inc., priority 2021, dated 2026).

For the first data set the following is noted: ethanol extraction of Golden Seal.
As for `COc1ccc2cc3[n+](cc2c1OC)CCc1cc2c(cc1-3)OCO2` [berberine], the “solubility in ethanol as a function of water content” value was “decreases rapidly with water content”.

For another data set the following is noted: reference solvents n-octanol and water; pH=7 unless stated otherwise; mostly given as approximate (~=).
Take `CC(C)=C[C@H]1C[C@](C)(O)[C@@H]2[C@H]3CC[C@@H]4[C@@]5(C)CC[C@H](O[C@@H]6OC[C@H](O)[C@H](O[C@@H]7O[C@H](CO)[C@@H](O)[C@H](O)[C@H]7O)[C@H]6O[C@@H]6O[C@@H](CO)[C@H](O)[C@H]6O)C(C)(C)[C@@H]5CC[C@@]4(C)[C@@]34CO[C@@]2(C4)O1` [bacopaside X]: the logP is reported as roughly 2.2.

As for `COc1cc(/C=C\c2ccc(OC)c(O)c2)oc(=O)c1` [11-hydroxyyangonin], the logP was roughly 2.2.

Take `CC(C)=C[C@@H]1CO[C@]23C[C@]4(CO2)[C@H](CC[C@@H]2[C@@]5(C)CC[C@H](O[C@@H]6OC[C@H](O)[C@H](O[C@@H]7O[C@H](CO)[C@@H](O)[C@H](O)[C@H]7O)[C@H]6O[C@@H]6O[C@@H](CO)[C@H](O)[C@H]6O)C(C)(C)[C@@H]5CC[C@]24C)[C@H]3[C@@]1(C)O` [bacopasaponin C]: the lipophilicity (logP) is recorded as roughly 2.

On to `COC1=CC(=O)O[C@@H](CCc2ccc3c(c2)OCO3)C1` [7,8-dihydromethysticin], for which the logP was roughly 2.2.

As to `COc1cc2c(c(OC)c1OC)-c1c(cc(OC)c(OC)c1OC)C[C@](C)(O)[C@@H](C)C2` [schisandrol A], the logP is roughly 3.4.

As for `CC(=O)OC1C=CC(=O)N(C(=O)CCc2ccccc2)C1` (stereo not drawn) [pipermethystine], the logP is on record as roughly 1.8.

bacopaside B: the logP is recorded as roughly 2.8.

Take `N#C[C@@]1(O[C@@H]2O[C@H](CO)[C@@H](O)[C@H](O)[C@H]2O)C=C[C@@H](O)C1` [tetraphyllin B]: the logP was roughly −2.5.

For `COc1nc2c(c(=O)n1C)n(C)c(=O)n2C` [methylliberine], the logP is reported as roughly −0.083.

On to `COc1ccc(C23C=CC(O)CC2N(C)CC3)cc1OC` (stereo not drawn) [mesembrenol], for which the logP was roughly 2.4.

For the compound tortuosomine, the log partition coefficient (logP) is roughly 3.

On to herinacine A, for which the lipophilicity (logP) is reported as roughly 2.5.

With `COc1ccc(CCc2cc(OC)cc(=O)o2)cc1` [7,8-dihydroyangonin], the logP is roughly 2.9.

Regarding `COC1=CC(=O)OC(/C=C/c2ccc(OC)cc2)C1` (stereo not drawn) [5,6-dihydroyangonin], the logP is roughly 2.5.

On to `COc1cc2c(c(OC)c1OC)-c1c(cc(OC)c(OC)c1OC)C[C@H](C)[C@H](C)C2` [(−)-schisandrin A], for which the logP is recorded as roughly 3.6.

As for `CC1=C(CO)C(=O)O[C@@H]([C@@H](C)[C@H]2CC[C@H]3[C@@H]4C[C@H](Cl)[C@]5(O)[C@@H](O)C=CC(=O)[C@]5(C)[C@H]4CC[C@]23C)C1` [6a-chloro-5b-hydroxywithaferin A], the logP was roughly 3.2.

As to `CC(C)=CCC[C@](C)(O[C@@H]1O[C@H](CO[C@@H]2O[C@H](CO)[C@@H](O)[C@H](O)[C@H]2O)[C@@H](O)[C@H](O)[C@H]1O)[C@H]1CC[C@]2(C)[C@@H]1[C@H](O)C[C@@H]1[C@@]3(C)CC[C@H](O[C@@H]4O[C@H](CO)[C@@H](O)[C@H](O)[C@H]4O[C@@H]4O[C@H](CO)[C@@H](O)[C@H](O)[C@H]4O)C(C)(C)[C@@H]3CC[C@]12C` [ginsenoside rb1], the logP is roughly −1.

`COc1ccc([C@@]23C=CC(=O)C[C@@H]2N(C)CC3)cc1OC` [mesembrenone]: the logP was roughly 1.3.

On to `COc1cc2c(c(OC)c1OC)-c1c(cc(OC)c(OC)c1OC)C[C@](C)(O)[C@@H](C)C2` [(+)-schisandrin], for which the logP is reported as roughly 5.

As for `COc1cc([C@H]2Oc3cc(O)c4c(=O)c(O)c(-c5ccc(O)cc5)oc4c3O[C@@H]2CO)ccc1O` [rhodiolin], the logP is roughly 2.

`CC(C)=C[C@H]1C[C@](C)(O)[C@H]2[C@H]3CC[C@@H]4[C@@]5(C)CC[C@H](O[C@@H]6O[C@H](CO)[C@@H](O)[C@H](O[C@@H]7O[C@H](CO)[C@@H](O)[C@H](O)[C@H]7O)[C@H]6O[C@@H]6O[C@@H](CO)[C@H](O)[C@H]6O)C(C)(C)[C@@H]5CC[C@@]4(C)[C@@]34CO[C@@]2(C4)O1` [bacoside A3]: the logP is roughly 2.1.

As for `CC(C)=CCC[C@](C)(O[C@@H]1O[C@H](CO)[C@@H](O)[C@H](O)[C@H]1O)[C@H]1CC[C@]2(C)[C@@H]1[C@H](O)C[C@@H]1[C@@]3(C)CC[C@H](O)C(C)(C)[C@@H]3[C@@H](O[C@@H]3O[C@H](CO)[C@@H](O)[C@H](O)[C@H]3O)C[C@]12C` [ginsenoside rg1], the logP was roughly 0.8.

Regarding `COc1c2c(cc3c1-c1c(cc4c(c1OC)OCO4)C[C@H](C)[C@H](C)C3)OCO2` [(−)-schisandrin C], the logP is reported as roughly 3.5.

For the compound `COc1cc2c(c(OC)c1OC)-c1c(cc3c(c1OC)OCO3)CC(C)C(C)C2` (single isomer, unassigned; (-)) [(−)-schisandrin B], the logP is given as roughly 4.

For the compound `COc1cc(/C=C/c2ccccc2)oc(=O)c1` [5,6-dehydrokawain], the logP is roughly 2.9.

Consider `COc1ccc([C@@]23CCC(=O)C[C@@H]2N(C)CC3)cc1OC` [mesembrine], for which the logP is roughly 1.5.

Consider (R)-kawain, for which the log partition coefficient (logP) was roughly 2.7.

On to hericerin, for which the logP is given as roughly 6.4.

In the case of schisandroside C, the lipophilicity (logP) is roughly 1.6.

One may read the logP as a log measure of how a compound divides between an organic and an aqueous phase.
